Results from ChEMBL document CHEMBL5257114, “Discovery of imidazo[1,2-b]pyridazine macrocyclic derivatives as novel ALK inhibitors capable of combating multiple resistant mutants” (Bioorg Med Chem Lett, 2023).

Legend:
[1] = target: ALK tyrosine kinase receptor (Homo sapiens, UniProt Q9UM73, G1202R); test: Inhibition of ALK G1202R mutant (unknown origin)
[2] = target: ALK tyrosine kinase receptor (Homo sapiens, UniProt Q9UM73); test: Inhibition of wild type ALK (unknown origin)
[3] = Inhibition of ALK L1196M/G1202R mutant (unknown origin); design: species or system Homo sapiens
[4] = test system: KARPAS-299; test: Antiproliferative activity against human KARPAS-299 cells assessed as cell growth inhibition by CCK-8 assay
[5] = Metabolic stability in human liver microsomes assessed as half life; type: ADME, Microsome
[6] = test system: BaF3; test: Antiproliferative activity against EML4-ALK-L1196M/G1202R mutated mouse BaF3 cells assessed as cell growth inhibition by CCK-8 assay; type: functional, cell-based
[7] = Metabolic stability in human liver microsomes assessed as clearance; type: ADME, Microsome; details: read-out: CLH
[8] = Metabolic stability in human liver microsomes assessed as parent compound remaining measured after 60 mins; type: ADME, Microsome; details: read-out: Stability
[9] = Antiproliferative activity against mouse Ba/F3 EML4-ALK-G1202R cells assessed as cell growth inhibition by CCK-8 assay; type: functional, cell-based

ALK tyrosine kinase receptor (Homo sapiens, UniProt Q9UM73, G1202R), sequence (Q9UM73 19-1620 G1202R limits assumed): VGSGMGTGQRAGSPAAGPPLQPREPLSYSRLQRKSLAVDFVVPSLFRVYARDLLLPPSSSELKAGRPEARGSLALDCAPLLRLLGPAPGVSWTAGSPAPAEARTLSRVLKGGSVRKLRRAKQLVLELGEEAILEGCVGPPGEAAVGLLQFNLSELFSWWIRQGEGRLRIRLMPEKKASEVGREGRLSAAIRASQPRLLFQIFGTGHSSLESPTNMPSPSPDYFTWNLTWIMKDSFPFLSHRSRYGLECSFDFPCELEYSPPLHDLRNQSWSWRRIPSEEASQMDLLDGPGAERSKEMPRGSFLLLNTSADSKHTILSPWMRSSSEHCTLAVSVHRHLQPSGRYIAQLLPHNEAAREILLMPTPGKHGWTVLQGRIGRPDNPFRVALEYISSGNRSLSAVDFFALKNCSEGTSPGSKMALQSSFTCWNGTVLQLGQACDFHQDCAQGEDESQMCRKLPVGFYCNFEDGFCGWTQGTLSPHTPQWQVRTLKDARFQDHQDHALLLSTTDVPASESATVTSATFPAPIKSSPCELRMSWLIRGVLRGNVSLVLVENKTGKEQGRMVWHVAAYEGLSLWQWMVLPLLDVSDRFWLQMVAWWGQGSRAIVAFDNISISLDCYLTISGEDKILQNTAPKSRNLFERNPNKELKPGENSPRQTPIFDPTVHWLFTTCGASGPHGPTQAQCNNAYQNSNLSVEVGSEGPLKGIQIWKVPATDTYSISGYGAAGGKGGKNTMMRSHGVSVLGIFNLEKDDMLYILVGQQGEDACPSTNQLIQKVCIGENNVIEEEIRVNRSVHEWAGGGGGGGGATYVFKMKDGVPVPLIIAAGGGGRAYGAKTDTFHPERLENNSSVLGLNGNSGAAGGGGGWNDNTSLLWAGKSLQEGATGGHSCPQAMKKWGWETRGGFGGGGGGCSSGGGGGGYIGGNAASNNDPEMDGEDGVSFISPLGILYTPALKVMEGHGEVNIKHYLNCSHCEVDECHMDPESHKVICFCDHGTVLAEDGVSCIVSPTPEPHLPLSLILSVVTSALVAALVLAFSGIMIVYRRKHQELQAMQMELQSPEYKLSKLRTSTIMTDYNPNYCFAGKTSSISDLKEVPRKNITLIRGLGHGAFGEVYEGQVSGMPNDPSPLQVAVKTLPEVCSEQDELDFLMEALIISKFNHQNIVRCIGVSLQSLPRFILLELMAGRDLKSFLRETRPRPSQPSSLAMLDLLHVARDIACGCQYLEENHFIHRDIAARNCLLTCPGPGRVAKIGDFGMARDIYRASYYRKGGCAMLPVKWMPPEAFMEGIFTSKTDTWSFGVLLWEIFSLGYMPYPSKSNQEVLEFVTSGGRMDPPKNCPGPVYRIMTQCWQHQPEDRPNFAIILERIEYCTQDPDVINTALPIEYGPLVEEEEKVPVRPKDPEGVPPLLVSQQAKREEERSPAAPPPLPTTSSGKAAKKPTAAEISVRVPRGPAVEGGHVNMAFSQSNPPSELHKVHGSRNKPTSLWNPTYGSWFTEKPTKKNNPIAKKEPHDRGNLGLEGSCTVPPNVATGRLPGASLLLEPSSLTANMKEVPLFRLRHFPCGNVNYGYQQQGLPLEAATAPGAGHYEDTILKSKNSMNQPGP
ALK tyrosine kinase receptor (Homo sapiens, UniProt Q9UM73), sequence (Q9UM73 whole entry): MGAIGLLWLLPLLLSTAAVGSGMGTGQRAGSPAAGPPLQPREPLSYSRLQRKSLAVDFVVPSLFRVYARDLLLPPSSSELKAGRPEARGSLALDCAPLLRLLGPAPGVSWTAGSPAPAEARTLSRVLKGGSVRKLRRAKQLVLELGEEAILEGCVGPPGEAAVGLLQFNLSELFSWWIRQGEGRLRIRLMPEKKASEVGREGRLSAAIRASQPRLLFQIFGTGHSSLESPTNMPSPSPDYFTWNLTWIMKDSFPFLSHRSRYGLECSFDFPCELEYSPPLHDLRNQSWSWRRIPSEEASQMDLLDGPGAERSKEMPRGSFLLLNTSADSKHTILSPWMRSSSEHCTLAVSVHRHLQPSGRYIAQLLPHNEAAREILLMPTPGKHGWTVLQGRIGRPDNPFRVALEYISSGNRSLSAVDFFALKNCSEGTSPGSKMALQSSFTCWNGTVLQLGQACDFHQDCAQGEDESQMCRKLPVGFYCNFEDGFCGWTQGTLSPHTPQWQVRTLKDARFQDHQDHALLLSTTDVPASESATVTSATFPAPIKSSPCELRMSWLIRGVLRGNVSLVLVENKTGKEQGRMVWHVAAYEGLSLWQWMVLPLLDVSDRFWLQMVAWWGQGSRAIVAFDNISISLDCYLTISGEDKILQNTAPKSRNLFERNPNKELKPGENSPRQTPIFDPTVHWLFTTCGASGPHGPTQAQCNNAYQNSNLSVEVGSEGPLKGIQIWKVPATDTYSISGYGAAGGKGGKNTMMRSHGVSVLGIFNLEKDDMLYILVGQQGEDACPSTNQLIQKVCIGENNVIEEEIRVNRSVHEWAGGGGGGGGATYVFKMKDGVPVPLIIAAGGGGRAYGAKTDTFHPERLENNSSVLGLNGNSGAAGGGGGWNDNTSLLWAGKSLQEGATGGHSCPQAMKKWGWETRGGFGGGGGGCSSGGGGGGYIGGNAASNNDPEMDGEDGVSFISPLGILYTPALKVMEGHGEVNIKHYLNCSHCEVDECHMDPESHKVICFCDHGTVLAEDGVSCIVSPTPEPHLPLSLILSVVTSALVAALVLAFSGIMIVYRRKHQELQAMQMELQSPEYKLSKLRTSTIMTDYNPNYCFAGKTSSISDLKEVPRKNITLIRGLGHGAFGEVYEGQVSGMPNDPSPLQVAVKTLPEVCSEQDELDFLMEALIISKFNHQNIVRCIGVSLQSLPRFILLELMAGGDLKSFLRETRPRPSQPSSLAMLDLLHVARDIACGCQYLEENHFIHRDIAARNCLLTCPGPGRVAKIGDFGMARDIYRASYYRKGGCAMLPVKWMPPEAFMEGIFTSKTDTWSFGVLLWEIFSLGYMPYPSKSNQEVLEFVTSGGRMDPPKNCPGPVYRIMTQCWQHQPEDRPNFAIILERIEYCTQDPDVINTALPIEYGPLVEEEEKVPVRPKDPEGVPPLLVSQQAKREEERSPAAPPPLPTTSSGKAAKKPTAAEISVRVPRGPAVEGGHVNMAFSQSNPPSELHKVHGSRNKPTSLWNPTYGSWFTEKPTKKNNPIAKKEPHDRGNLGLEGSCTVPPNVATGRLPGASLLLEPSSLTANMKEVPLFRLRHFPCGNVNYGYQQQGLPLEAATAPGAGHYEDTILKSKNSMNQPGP

| SMILES | IC50 [1] [nM] | IC50 [2] [nM] | IC50 [3] [nM] | IC50 [4] [nM] | half-life [5] [min] | IC50 [6] [nM] | microsomal CLint [7] [µL/min/mg] | remaining at 1 h [8] [%] | IC50 [9] [nM] |
| --- | --- | --- | --- | --- | --- | --- | --- | --- | --- |
| CN1Cc2cc(F)ccc2OCC(C)(C)NC(=O)c2cnc3ccc1nn23 | 19 | 25 | 95 | – | – | – | – | – | – |
| CC1(C)COc2ccc(F)cc2CN(C2CCC2)c2ccc3ncc(n3n2)C(=O)N1 | 200 | 159 | 442 | – | – | – | – | – | – |
| C[C@H]1Nc2ccc3ncc(n3n2)C(=O)NC2(CCC2)COc2ccc(F)cc21 | 4.7 | 7.6 | 18 | – | – | – | – | – | – |
| C[C@H]1Nc2ccc3ncc(n3n2)C(=O)NC2(CC2)COc2ccc(F)cc21 | 8 | 4.2 | 24 | 39 | 33.8 | 76 | 41 | 28.8 | 56 |
| C[C@H]1CNC(=O)c2cnc3ccc(nn23)N[C@H](C)c2cc(F)ccc2O1 | 11 | 5.1 | 22 | 72 | – | 147 | – | – | 84 |
| C[C@@H]1Nc2ccc3ncc(n3n2)C(=O)NC2(CC2)COc2ccc(F)cc21 | 1000 | 482 | – | – | – | – | – | – | – |
| C=CC[C@H]1Nc2ccc3ncc(n3n2)C(=O)NC2(CC2)COc2ccc(F)cc21 | 64 | 9.7 | 34.4 | – | – | – | – | – | – |
| CC1(C)COc2ccc(F)cc2CNc2ccc3ncc(n3n2)C(=O)N1 | 20 | 19 | 37 | – | – | – | – | – | – |
| C[C@H]1Nc2ccc3ncc(n3n2)C(=O)NC(C)(C)COc2ccc(F)cc21 | 6.4 | 8.3 | 26 | – | – | – | – | – | – |
| CCC[C@H]1Nc2ccc3ncc(n3n2)C(=O)NC2(CC2)COc2ccc(F)cc21 | 1000 | 415 | – | – | – | – | – | – | – |
| C[C@H]1Nc2ccc3ncc(n3n2)C(=O)NC2(CC2)COc2ccc(Cl)cc21 | 56 | 29 | 105 | – | – | – | – | – | – |
| CC(C)N1Cc2cc(F)ccc2OCC(C)(C)NC(=O)c2cnc3ccc1nn23 | 145 | 99 | 328 | – | – | – | – | – | – |

Further lines, with some results ahead:

| IC50 [1] [nM] | IC50 [2] [nM] | IC50 [3] [nM] | IC50 [4] [nM] | half-life [5] [min] | IC50 [6] [nM] | microsomal CLint [7] [µL/min/mg] | remaining at 1 h [8] [%] | SMILES | IC50 [9] [nM] |
| --- | --- | --- | --- | --- | --- | --- | --- | --- | --- |
| 28 | 13 | 59 | – | – | – | – | – | C[C@H]1Nc2ccc3ncc(n3n2)C(=O)NCCOc2ccc(F)cc21 | – |
| 47 | 18 | 85 | – | – | – | – | – | Cc1cc2ncc3n2nc1N[C@H](C)c1cc(F)ccc1OCC1(CC1)NC3=O | – |
| 82 | 77 | 309 | – | – | – | – | – | CC1(C)COc2ccc(F)cc2CN(C2CC2)c2ccc3ncc(n3n2)C(=O)N1 | – |
| 22 | 27 | 84 | – | – | – | – | – | CCN1Cc2cc(F)ccc2OCC(C)(C)NC(=O)c2cnc3ccc1nn23 | – |
| 993 | 373 | 984 | – | – | – | – | – | C[C@H]1Nc2ccc3ncc(n3n2)C(=O)NC2(CC2)COc2cc(F)ccc21 | – |
| 98 | 27 | 173 | – | – | – | – | – | C[C@H]1Nc2ccc3ncc(n3n2)C(=O)NC2(CC2)COc2ccccc21 | – |
| – | – | 20 | 40 | 54.1 | 208 | 25.6 | 46.1 | C[C@H]1CNC(=O)c2cnn3ccc(nc23)N[C@H](C)c2cc(F)ccc2O1 [REPOTRECTINIB] | 164 |
